Data from patent US20070060599A1, “Crystalline forms of [1S-(1alpha, 3alpha, 4beta)]-2-amino-1,9-dihydro-9-[4-hydroxy-3-(hydroxymethyl)-2-methylenecyclopentyl]-6H-purin-6-one” (priority 2005, published 2007).

System: hepatitis B virus infection
Assay: once daily administration of low dose entecavir pharmaceutical compositions to treat hepatitis B virus infection
Type: in vivo, human
Experimental: In a yet another aspect, the invention provides pharmaceutical compositions comprising Form N-2 and/or Form IP.3-4 crystals of [1S-(1α,3α,4β)]-2-amino-1,9-dihydro-9-[4-hydroxy-3-(hydroxymethyl)-2-methylenecyclopentyl]-6H-purin-6-one and at least one pharmaceutically acceptable carrier or excipient. The pharmaceutical compositions may contain a low dose of from about 0.001 mg to about 25 mg of the active drug ingredient for once daily administration to treat hepatitis B virus infection in an adult human patient or a pediatric patient. Preferred pharmaceutical compositions contain from about 0.01 mg to about 10 mg of the active drug ingredient and most preferred pharmaceutical compositions contain from about 0.01 to about 5 mg of the active drug ingredient. Such preferred and most preferred pharmaceutical compositions are also administered once daily to treat hepatitis B virus infection in an adult or a pediatric patient.

Question: For `C=C1[C@H](CO)[C@@H](O)C[C@@H]1n1cnc2c(=O)[nH]c(N)nc21` [entecavir, [1S-(1α,3α,4β)]-2-amino-1,9-dihydro-9-[4-hydroxy-3-(hydroxymethyl)-2-methylenecyclopentyl]-6H-purin-6-one monohydrate], which “effectiveness in treating hepatitis B virus infection” value is on record?
Answer: effective

Question: And the undesirable side effects (compared with the high dose regimen of U.S. Pat. No. 5,206,244)?
Answer: without undesirable side effects
